Where a SMILES comes first, the peptide text is derived from it. [ ]: non-standard residue; d: D form. The star is where a group is joined. Gly(N-(2R-Ph-propyl)) = C[C@@H](CNCC(=O)O)c1ccccc1; Piperidin1yl(4-NH2,4-COOH) = NC1(C(=O)O)CCN(*)CC1; N(Indan-2-yl)Gly = O=C(O)CNC1Cc2ccccc2C1; Gly(NCH2CH2Ph) = O=C(O)CNCCc1ccccc1; Morpholide = C1CN(*)CCO1; X1 = CNC(=O)NC1CCN(*)CC1
Key:
[1] = target: Kappa-type opioid receptor (Homo sapiens, UniProt P41145); assay: Agonist activity at human kappa opioid receptor expressed in HEK293 cells assessed as inhibition of forskolin-induced cAMP accumulation measured after 5 hrs by One-Glo luciferase assay; type: functional, cell-based
[2] = Half life in ICR mouse at 1 mg/kg, iv measured up to 24 hrs; type: ADME, organism-based; settings: in vivo
[3] = Clearance in Beagle dog at 0.5 mg/kg, iv measured up to 24 hrs; type: ADME, organism-based, Canis lupus familiaris; settings: in vivo
[4] = Half life in mouse liver microsomes; type: ADME, Microsome
[5] = Drug concentration in Sprague-Dawley rat brain at 1 mg/kg, iv; type: ADME, organism-based; settings: in vivo
[6] = Apparent volume of distribution in Sprague-Dawley rat at 1 mg/kg, iv measured up to 24 hrs; type: ADME, organism-based; settings: in vivo, read-out: Vz
Cytochrome P450 1A2 = target: T1, Cytochrome P450 1A2 (Homo sapiens, UniProt P05177); assay: Inhibition of CYP1A2 in human pooled liver microsomes using phenacetin as substrate measured up to 20 mins by UHPLC-MS/MS analysis; type: ADME
T1 sequence (P05177 whole entry): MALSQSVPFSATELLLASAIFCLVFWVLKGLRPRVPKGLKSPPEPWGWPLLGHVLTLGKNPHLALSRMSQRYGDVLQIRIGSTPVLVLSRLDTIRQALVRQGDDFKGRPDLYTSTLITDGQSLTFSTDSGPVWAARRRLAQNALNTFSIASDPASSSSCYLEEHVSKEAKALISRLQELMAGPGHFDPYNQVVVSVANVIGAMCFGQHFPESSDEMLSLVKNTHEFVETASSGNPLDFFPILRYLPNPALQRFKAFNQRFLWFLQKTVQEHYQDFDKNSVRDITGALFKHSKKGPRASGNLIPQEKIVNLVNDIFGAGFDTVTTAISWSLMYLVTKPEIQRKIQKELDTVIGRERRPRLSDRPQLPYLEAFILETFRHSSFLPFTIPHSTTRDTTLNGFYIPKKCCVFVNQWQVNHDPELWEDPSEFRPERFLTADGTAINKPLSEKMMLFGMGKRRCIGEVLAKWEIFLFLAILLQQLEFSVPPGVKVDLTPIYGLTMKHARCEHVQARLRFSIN

Rattus norvegicus [7] = assay: Antiinflammatory activity in carrageenan-induced pain in Wistar rat model assessed as effect on hindpaw withdrawal threshold at 0.03 to 0.3 mg/kg, iv administered 4 hrs post-carrageenan challenge and measured for 30 mins after compound administration by Von-Frey test relative to control; type: functional; settings: dose mg/kg 0.03-0.3, 0.5 h
[8] = Drug concentration in Sprague-Dawley rat plasma at 1 mg/kg, iv; type: ADME, organism-based; settings: in vivo
[9] = Half life in human liver microsomes; type: ADME, Microsome
[10] = AUC (0 to t) in ICR mouse at 1 mg/kg, iv measured up to 24 hrs; type: ADME, organism-based; design: route intravenous, dose 1 mg/kg, time 24 hrs; settings: in vivo
[11] = AUC (0 to t) in Sprague-Dawley rat at 1 mg/kg, iv measured up to 24 hrs; type: ADME, organism-based; design: route intravenous, dose 1 mg/kg, time <=24; settings: in vivo
Cytochrome P450 2C9 = Cytochrome P450 2C9 (Homo sapiens, UniProt P11712); assay: Inhibition of CYP2C9 in human pooled liver microsomes using tolbutamide as substrate measured up to 20 mins by UHPLC-MS/MS analysis; type: ADME
Rattus norvegicus [12] = assay: Antiinflammatory activity in carrageenan-induced pain in iv dosed Wistar rat model assessed as effect on hindpaw withdrawal threshold administered 4 hrs post-carrageenan challenge and measured for 30 mins after compound administration by Von-Frey test; type: functional, organism-based; settings: dose mg/kg 0.03-0.3, time 30.0 min
[13] = Half life in dog liver microsomes; type: ADME, Canis lupus familiaris, Microsome
Cytochrome P450 2C19 = Cytochrome P450 2C19 (Homo sapiens, UniProt P33261); assay: Inhibition of CYP2C19 in human pooled liver microsomes using S-mephenytoin as substrate measured up to 20 mins by UHPLC-MS/MS analysis; type: ADME
Mu-type opioid receptor = Mu-type opioid receptor (Homo sapiens, UniProt P35372); assay: Agonist activity at human mu opioid receptor assessed as inhibition of forskolin-induced cAMP accumulation; type: ADME
[14] = Half life in Beagle dog at 0.5 mg/kg, iv measured up to 24 hrs; type: ADME, organism-based, Canis lupus familiaris; settings: in vivo
[15] = Apparent volume of distribution in ICR mouse at 1 mg/kg, iv measured up to 24 hrs; type: ADME, organism-based; settings: in vivo, read-out: Vz
Cytochrome P450 3A4 [16] = target: T2, Cytochrome P450 3A4 (Homo sapiens, UniProt P08684); assay: Inhibition of CYP3A4 in human pooled liver microsomes using midazolam as substrate measured up to 20 mins by UHPLC-MS/MS analysis; type: ADME
[17] = Half life in rat liver microsomes; type: ADME, Microsome
[18] = target: Voltage-gated inwardly rectifying potassium channel KCNH2 (Homo sapiens, UniProt Q12809); assay: Inhibition of human ERG
[19] = Unbound fraction in Sprague-Dawley rat brain at 1 mg/kg, iv; type: ADME, organism-based
[20] = Unbound brain-to-plasma concentration ratio in Sprague-Dawley rat at 1 mg/kg, iv; type: ADME, organism-based; settings: read-out: K(p,uu,brain)
Cytochrome P450 3A4 [21] = target: T2, Cytochrome P450 3A4; assay: Inhibition of CYP3A4 in human pooled liver microsomes using testosterone as substrate measured up to 20 mins by UHPLC-MS/MS analysis; type: ADME
[22] = Clearance in Sprague-Dawley rat at 1 mg/kg, iv measured up to 24 hrs; type: ADME, organism-based; settings: in vivo
[23] = Unbound fraction in Sprague-Dawley rat plasma at 1 mg/kg, iv; type: ADME, organism-based
Cytochrome P450 2D6 = Cytochrome P450 2D6 (Homo sapiens, UniProt P10635); assay: Inhibition of CYP2D6 in human pooled liver microsomes using dextromethorphan as substrate measured up to 20 mins by UHPLC-MS/MS analysis; type: ADME
[24] = Clearance in ICR mouse at 1 mg/kg, iv measured up to 24 hrs; type: ADME, organism-based; settings: in vivo
[25] = Half life in Sprague-Dawley rat at 1 mg/kg, iv measured up to 24 hrs; type: ADME, organism-based; settings: in vivo
[26] = Apparent volume of distribution in Beagle dog at 0.5 mg/kg, iv measured up to 24 hrs; type: ADME, organism-based, Canis lupus familiaris; settings: in vivo, read-out: Vz
[27] = target: Delta-type opioid receptor (Homo sapiens, UniProt P41143); assay: Agonist activity at human delta opioid receptor assessed as inhibition of forskolin-induced cAMP accumulation
Rattus norvegicus [28] = assay: Antiinflammatory activity in carrageenan-induced pain in Wistar rat model assessed as effect on hindpaw withdrawal threshold at 0.3 mg/kg, iv administered 4 hrs post-carrageenan challenge and measured for 30 mins after compound administration by Von-Frey test relative to control; type: functional; settings: dose mg/kg 0.03-0.3, 0.5 h
[29] = AUC (0 to t) in Beagle dog at 0.5 mg/kg, iv measured up to 24 hrs; type: ADME, organism-based, Canis lupus familiaris; design: route intravenous, dose 0.5 mg/kg, time <=24; settings: in vivo

Sequence of Kappa-type opioid receptor (P41145 whole entry): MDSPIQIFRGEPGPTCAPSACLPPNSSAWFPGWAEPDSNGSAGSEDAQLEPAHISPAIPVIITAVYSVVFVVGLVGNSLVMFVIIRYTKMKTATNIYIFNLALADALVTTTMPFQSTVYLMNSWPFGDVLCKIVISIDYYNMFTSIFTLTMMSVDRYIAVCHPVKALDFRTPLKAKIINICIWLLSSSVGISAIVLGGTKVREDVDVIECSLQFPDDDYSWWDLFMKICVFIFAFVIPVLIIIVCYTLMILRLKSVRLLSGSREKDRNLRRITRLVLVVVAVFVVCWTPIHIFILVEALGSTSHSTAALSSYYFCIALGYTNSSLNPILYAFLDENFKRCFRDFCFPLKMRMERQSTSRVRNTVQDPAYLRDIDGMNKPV
T2 sequence (P08684 whole entry): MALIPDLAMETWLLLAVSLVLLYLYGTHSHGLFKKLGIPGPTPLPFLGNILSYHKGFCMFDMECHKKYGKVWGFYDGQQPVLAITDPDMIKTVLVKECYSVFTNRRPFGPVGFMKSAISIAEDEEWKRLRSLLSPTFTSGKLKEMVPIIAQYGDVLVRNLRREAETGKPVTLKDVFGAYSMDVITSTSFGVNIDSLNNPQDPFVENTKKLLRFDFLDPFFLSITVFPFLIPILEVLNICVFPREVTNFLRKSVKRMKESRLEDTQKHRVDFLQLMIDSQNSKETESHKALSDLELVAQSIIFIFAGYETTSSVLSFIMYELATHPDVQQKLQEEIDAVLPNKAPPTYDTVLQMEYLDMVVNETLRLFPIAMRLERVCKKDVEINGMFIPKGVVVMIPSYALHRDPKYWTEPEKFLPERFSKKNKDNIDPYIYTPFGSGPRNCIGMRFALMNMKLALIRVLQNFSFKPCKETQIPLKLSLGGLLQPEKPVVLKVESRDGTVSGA
Sequence of Delta-type opioid receptor (P41143 whole entry): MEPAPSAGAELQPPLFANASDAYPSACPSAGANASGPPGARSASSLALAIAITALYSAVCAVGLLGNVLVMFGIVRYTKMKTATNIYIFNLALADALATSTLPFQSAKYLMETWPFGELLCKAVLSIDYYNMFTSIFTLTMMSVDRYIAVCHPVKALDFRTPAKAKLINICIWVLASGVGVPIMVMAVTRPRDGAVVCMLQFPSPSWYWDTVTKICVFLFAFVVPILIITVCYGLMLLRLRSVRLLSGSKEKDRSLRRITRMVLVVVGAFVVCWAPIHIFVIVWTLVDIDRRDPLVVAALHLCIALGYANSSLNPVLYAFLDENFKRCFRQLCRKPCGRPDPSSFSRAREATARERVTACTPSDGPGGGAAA
Sequence of Cytochrome P450 2C19 (P33261 whole entry): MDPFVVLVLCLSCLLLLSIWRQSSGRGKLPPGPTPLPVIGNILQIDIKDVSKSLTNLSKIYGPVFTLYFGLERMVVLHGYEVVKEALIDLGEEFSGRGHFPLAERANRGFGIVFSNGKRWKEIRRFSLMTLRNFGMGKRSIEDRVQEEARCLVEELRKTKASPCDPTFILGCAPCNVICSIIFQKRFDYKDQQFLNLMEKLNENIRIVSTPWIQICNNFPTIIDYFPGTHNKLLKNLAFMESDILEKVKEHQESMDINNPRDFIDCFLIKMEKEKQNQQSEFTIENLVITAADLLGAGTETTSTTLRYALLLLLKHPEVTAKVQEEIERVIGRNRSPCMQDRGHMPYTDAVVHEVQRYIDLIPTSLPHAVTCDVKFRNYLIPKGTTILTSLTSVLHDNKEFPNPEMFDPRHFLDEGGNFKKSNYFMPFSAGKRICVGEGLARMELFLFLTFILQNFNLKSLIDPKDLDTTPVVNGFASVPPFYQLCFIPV
Sequence of Voltage-gated inwardly rectifying potassium channel KCNH2 (Q12809 whole entry): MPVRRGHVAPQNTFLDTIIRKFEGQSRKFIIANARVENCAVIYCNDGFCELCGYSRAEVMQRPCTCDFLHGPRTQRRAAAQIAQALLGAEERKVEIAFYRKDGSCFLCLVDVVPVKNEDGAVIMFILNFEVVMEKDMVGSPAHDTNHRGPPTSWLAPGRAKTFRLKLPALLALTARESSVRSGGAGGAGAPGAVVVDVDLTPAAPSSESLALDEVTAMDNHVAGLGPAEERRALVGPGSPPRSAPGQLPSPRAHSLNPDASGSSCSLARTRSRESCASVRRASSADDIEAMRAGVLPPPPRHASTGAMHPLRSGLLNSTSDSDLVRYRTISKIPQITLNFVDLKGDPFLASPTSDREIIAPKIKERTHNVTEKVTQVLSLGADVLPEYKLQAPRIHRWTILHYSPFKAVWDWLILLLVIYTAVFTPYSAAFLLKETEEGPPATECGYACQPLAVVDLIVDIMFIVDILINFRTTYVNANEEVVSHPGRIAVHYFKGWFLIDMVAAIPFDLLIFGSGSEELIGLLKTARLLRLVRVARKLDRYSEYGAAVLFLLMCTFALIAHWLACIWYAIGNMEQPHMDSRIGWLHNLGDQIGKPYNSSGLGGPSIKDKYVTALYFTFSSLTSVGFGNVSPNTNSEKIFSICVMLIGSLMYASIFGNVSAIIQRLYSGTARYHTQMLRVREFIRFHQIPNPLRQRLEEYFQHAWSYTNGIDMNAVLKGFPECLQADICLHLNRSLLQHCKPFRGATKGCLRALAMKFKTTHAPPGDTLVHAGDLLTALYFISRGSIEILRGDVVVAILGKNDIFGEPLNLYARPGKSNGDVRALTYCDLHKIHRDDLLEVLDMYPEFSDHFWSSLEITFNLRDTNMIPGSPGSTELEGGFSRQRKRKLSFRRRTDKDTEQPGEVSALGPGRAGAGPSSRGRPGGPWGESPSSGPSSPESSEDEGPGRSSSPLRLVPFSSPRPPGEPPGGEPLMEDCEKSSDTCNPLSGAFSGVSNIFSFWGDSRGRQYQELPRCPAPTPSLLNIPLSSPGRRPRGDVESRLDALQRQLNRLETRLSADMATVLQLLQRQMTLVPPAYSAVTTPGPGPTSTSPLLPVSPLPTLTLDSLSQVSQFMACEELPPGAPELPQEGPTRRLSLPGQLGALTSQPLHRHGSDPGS
Sequence of Cytochrome P450 2D6 (P10635 whole entry): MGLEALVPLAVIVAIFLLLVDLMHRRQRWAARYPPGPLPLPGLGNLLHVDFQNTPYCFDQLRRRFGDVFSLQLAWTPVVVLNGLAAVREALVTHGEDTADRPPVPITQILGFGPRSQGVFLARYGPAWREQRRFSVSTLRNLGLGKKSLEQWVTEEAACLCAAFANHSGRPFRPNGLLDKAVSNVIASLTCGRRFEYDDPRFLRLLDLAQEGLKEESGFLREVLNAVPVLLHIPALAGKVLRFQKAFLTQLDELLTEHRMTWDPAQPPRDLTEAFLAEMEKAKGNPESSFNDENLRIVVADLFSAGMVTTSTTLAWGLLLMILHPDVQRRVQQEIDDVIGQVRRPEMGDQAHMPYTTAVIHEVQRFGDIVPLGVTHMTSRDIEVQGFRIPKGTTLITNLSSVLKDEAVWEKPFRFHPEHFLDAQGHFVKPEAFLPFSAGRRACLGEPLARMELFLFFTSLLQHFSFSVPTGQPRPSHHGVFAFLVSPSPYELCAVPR
Sequence of Mu-type opioid receptor (P35372 whole entry): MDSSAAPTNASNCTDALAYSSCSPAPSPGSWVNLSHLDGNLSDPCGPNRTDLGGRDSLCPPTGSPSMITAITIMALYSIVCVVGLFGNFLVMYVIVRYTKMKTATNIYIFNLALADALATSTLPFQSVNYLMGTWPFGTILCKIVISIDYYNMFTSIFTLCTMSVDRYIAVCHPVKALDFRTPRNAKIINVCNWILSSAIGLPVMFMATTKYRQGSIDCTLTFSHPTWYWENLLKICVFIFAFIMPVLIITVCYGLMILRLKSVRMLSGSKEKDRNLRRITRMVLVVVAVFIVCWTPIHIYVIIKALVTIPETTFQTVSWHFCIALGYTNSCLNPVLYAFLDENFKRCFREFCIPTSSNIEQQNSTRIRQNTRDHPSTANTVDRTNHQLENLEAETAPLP
Sequence of Cytochrome P450 2C9 (P11712 whole entry): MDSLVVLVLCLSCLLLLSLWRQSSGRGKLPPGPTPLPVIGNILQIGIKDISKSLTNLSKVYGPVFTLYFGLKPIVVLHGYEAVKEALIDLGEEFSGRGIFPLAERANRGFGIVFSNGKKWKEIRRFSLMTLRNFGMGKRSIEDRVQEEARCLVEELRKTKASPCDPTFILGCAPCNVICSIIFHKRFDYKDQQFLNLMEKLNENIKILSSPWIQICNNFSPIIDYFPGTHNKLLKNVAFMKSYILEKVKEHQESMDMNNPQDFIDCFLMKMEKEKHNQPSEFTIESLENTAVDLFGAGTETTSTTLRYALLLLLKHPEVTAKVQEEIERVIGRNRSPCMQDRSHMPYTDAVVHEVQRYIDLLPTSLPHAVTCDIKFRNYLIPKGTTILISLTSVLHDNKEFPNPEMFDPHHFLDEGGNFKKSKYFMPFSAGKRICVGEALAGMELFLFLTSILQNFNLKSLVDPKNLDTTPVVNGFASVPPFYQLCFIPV

SMILES: CC(C)C[C@@H](NC(=O)[C@@H](Cc1ccccc1)NC(=O)[C@@H]1Cc2ccccc2CN1)C(=O)N[C@H](CCCCN)C(=O)N1CCOCC1
- EC50 [1]: > 1 nM

SMILES: CC(C)C[C@@H](NC(=O)[C@@H](Cc1ccccc1)NC(=O)C1(NCCc2ccccc2)CC1)C(=O)N[C@H](CCCCN)C(=O)N1CCC(N)(C(=O)O)CC1
- EC50 [1]: > 1 nM

SMILES: CC(C)C[C@@H](NC(=O)[C@@H](Cc1ccccc1)NC(=O)CNCc1ccccc1)C(=O)N[C@H](CCCCN)C(=O)N1CCOCC1
- EC50 [1]: > 1 nM

SMILES: CC(C)C[C@@H](NC(=O)[C@@H](Cc1ccccc1)NC(=O)CNC[C@@H](c1ccccc1)C(C)C)C(=O)N[C@H](CCCCN)C(=O)N1CCC(N)(C(=O)O)CC1
- EC50 [1]: 0.0095 nM

SMILES: CC(C)C[C@@H](NC(=O)[C@@H](Cc1ccccc1)NC(=O)CN[C@H]1C[C@@H]1c1ccccc1)C(=O)N[C@H](CCCCN)C(=O)N1CCOCC1
- EC50 [1]: 0.08 nM

SMILES: CC(C)C[C@@H](NC(=O)[C@@H](Cc1ccccc1)NC(=O)CNC[C@@H](C)c1ccccc1)C(=O)N[C@H](CCCCN)C(=O)N1CCC(N)(C(=O)O)CC1
- EC50 [1]: 0.0155 nM

SMILES: CC(C)C[C@@H](NC(=O)[C@@H](Cc1ccccc1)NC(=O)CNCCCc1ccccc1)C(=O)N[C@H](CCCCN)C(=O)N1CCOCC1
- EC50 [1]: 0.045 nM

SMILES: CC(C)C[C@@H](NC(=O)[C@@H](Cc1ccccc1)NC(=O)[C@@H](C)NCCc1ccccc1)C(=O)N[C@H](CCCCN)C(=O)N1CCC(N)(C(=O)O)CC1
- EC50 [1]: > 1 nM

SMILES: CC(C)C[C@@H](NC(=O)[C@@H](Cc1ccccc1)NC(=O)CNCC1(c2ccccc2)CC1)C(=O)N[C@H](CCCCN)C(=O)N1CCC(N)(C(=O)O)CC1
- EC50 [1]: 0.057 nM

SMILES: CC(C)C[C@@H](NC(=O)[C@@H](Cc1ccccc1)NC(=O)CNCCc1ccccc1)C(=O)N[C@H](CCCCN)C(=O)N1CCOCC1
- EC50 [1]: 0.048 nM

SMILES: CC(C)C[C@@H](NC(=O)[C@@H](Cc1ccccc1)NC(=O)CNCC(C)(C)c1ccccc1)C(=O)N[C@H](CCCCN)C(=O)N1CCC(N)(C(=O)O)CC1
- EC50 [1]: 0.078 nM

SMILES: CNC(=O)NC1CCN(C(=O)[C@@H](CCCCN)NC(=O)[C@@H](CC(C)C)NC(=O)[C@@H](Cc2ccccc2)NC(=O)CNC[C@H](C)c2ccccc2)CC1 (H-[Gly(N-(2R-Ph-propyl))][dF][dL][dK]-X1)
- half-life [2]: 0.34 h
- clearance [3]: 3.1 mL/min/kg
- half-life [4]: 1.92 h
- Ct [5]: 57.2 ng/g
- Vd [6]: 4.51 L/kg
- IC50 (Cytochrome P450 1A2): > 30000 nM
- Activity (Rattus norvegicus [7]): 28.9%
- Cp [8]: 1144 ng/mL
- half-life [9]: 0.667 h
- AUC(0-t) at 24 h [10]: 1660 ng·h/mL
- AUC(0-t) at 24 h [11]: 1550 ng·h/mL
- IC50 (Cytochrome P450 2C9): > 30000 nM
- Activity (Rattus norvegicus [12]): Dose-dependent effect
- half-life [13]: 3.6 h
- IC50 (Cytochrome P450 2C19): > 30000 nM
- EC50 (Mu-type opioid receptor): > 50000 nM
- half-life [14]: 4.45 h
- Vd [15]: 0.297 L/kg
- IC50 (Cytochrome P450 3A4 [16]): > 30000 nM
- half-life [17]: > 4.47 h
- IC50 [18]: > 30000 nM
- EC50 [1]: 0.00053 nM
- fraction unbound [19]: 0.0258
- Kp uu [20]: 0.006
- IC50 (Cytochrome P450 3A4 [21]): > 30000 nM
- clearance [22]: 10.5 mL/min/kg
- fraction unbound [23]: 0.211
- IC50 (Cytochrome P450 2D6): > 30000 nM
- clearance [24]: 10.1 mL/min/kg
- half-life [25]: 4.78 h
- Vd [26]: 1.24 L/kg
- EC50 [27]: > 50000 nM
- Activity (Rattus norvegicus [28]): 66.7%
- AUC(0-t) at 24 h [29]: 2620 ng·h/mL

SMILES: CC(C)C[C@@H](NC(=O)[C@@H](Cc1ccccc1)NC(=O)CNCCc1ccccc1)C(=O)N[C@H](CCCCN)C(=O)N1CCC(N)(C(=O)O)CC1 (H-[Gly(NCH2CH2Ph)][dF][dL][dK]-{Piperidin1yl(4-NH2,4-COOH)})
- EC50 [1]: 0.054 nM

SMILES: CC(C)C[C@@H](NC(=O)[C@@H](Cc1ccccc1)NC(=O)CNC1Cc2ccccc2C1)C(=O)N[C@H](CCCCN)C(=O)N1CCOCC1 (H-[N(Indan-2-yl)Gly][dF][dL][dK]-Morpholide)
- EC50 [1]: > 1 nM

SMILES: CCC(CNCC(=O)N[C@H](Cc1ccccc1)C(=O)N[C@H](CC(C)C)C(=O)N[C@H](CCCCN)C(=O)N1CCC(N)(C(=O)O)CC1)c1ccccc1 (mixture of isomers)
- EC50 [1]: 0.0029 nM

SMILES: CC(C)C[C@@H](NC(=O)[C@@H](Cc1ccccc1)NC(=O)[C@H](N)Cc1ccccc1)C(=O)N[C@H](CCCCN)C(=O)N1CCC(N)(C(=O)O)CC1 [DIFELIKEFALIN]
- EC50 [1]: 0.00262 nM
- Activity (Rattus norvegicus [28]): 61.9%

SMILES: CC(C)C[C@@H](NC(=O)[C@@H](Cc1ccccc1)NC(=O)CNC[C@H](C)c1ccccc1)C(=O)N[C@H](CCCCN)C(=O)N1CCC(N)(C(=O)O)CC1 [RIMINKEFON]
- EC50 [1]: 0.0014 nM
